The target in one test is T1, TTK (Homo sapiens, UniProt P33981).
T1 sequence (P33981 1-857): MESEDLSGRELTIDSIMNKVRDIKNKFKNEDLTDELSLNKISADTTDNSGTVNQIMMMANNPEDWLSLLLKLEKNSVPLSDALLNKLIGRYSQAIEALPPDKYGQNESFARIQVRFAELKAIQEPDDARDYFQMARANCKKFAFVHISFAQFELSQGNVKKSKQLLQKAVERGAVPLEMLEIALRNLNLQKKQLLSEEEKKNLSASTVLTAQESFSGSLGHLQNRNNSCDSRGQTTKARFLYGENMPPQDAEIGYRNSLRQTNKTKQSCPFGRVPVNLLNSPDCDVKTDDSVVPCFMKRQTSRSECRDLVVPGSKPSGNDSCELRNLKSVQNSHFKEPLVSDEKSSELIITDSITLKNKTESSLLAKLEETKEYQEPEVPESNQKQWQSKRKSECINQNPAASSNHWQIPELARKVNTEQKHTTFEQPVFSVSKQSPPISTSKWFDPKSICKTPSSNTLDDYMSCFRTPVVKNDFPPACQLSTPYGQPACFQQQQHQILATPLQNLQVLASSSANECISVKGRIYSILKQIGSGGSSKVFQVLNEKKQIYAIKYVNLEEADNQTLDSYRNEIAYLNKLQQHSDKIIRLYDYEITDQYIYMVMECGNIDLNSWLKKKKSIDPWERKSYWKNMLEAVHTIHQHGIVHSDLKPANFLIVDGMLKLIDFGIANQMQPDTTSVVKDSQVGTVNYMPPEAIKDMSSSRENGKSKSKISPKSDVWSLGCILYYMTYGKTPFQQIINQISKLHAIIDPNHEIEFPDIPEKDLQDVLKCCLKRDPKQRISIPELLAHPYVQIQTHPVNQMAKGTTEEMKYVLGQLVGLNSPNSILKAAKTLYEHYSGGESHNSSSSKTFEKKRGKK
The experiment in a line: TTK enzyme inhibition, ADP-Glo kinase assay. In kind it is biochemical. Also on record: purchased SignalChem T20-10G. The conditions noted are these: ATP 5 μM. The essentials: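 Purified human TTK (7.5 ng) was reacted with 5 μM ATP and 0.2 μg MBP substrate for 4 h at 25 °C in 40 mM Tris-HCl pH 7.4, 20 mM MgCl2, 0.1 mg/mL BSA, 50 μM DTT. ADP formation was read by ADP-Glo luminescence, and IC50 was taken relative to solvent control.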

In a further test the test system is human DYRK1A and tau. Description: Inhibition of tau phosphorylation, ClariCELL Kinase Cell-Based Assay, HEK 293 cells expressing human DYRK1A and tau. The conditions noted are these: for inhibition at 1 µM: HEK293, read-out: % inhibition at 1 uM, tau phosphorylation, compound 1 uM; for inhibition at 0.25 µM / inhibition at 0.5 µM: HEK293, tau phosphorylation; for inhibition at 0.25 µM: compound 0.25 uM; for inhibition at 0.5 µM: compound 0.5 uM. The essentials: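 Cell-based service assay: HEK 293 cells transiently expressing human DYRK1A and tau were treated with compound and lysed. Released tau was plate-captured and its phosphorylation quantified by ELISA with a phospho-tau-specific antibody.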

Another test addresses LRRK2 (Homo sapiens, UniProt Q5S007). The experiment in a line: LRRK2 enzyme inhibition, ADP-Glo kinase assay. Format: biochemical. Also on record: purchased Invitrogen PR8604B. Particulars: ATP 10 μM. In a few lines: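 ADP-Glo luminescent read-out of ADP formed by purified human LRRK2 enzyme (25 ng), 10 μM ATP, 0.2 μg substrate, 25° C for 2 h, Tris-HCl pH 7.4 buffer with MgCl2, BSA, DTT. Inhibition versus untreated solvent control over twelve final concentrations (50 μM downward) gives IC50.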
(In ADP-Glo the light output rises with the ADP produced.)

A value given as a limit tells only on which side of the number the result lay.

LRRK2, sequence (Q5S007 970-2527 limits assumed): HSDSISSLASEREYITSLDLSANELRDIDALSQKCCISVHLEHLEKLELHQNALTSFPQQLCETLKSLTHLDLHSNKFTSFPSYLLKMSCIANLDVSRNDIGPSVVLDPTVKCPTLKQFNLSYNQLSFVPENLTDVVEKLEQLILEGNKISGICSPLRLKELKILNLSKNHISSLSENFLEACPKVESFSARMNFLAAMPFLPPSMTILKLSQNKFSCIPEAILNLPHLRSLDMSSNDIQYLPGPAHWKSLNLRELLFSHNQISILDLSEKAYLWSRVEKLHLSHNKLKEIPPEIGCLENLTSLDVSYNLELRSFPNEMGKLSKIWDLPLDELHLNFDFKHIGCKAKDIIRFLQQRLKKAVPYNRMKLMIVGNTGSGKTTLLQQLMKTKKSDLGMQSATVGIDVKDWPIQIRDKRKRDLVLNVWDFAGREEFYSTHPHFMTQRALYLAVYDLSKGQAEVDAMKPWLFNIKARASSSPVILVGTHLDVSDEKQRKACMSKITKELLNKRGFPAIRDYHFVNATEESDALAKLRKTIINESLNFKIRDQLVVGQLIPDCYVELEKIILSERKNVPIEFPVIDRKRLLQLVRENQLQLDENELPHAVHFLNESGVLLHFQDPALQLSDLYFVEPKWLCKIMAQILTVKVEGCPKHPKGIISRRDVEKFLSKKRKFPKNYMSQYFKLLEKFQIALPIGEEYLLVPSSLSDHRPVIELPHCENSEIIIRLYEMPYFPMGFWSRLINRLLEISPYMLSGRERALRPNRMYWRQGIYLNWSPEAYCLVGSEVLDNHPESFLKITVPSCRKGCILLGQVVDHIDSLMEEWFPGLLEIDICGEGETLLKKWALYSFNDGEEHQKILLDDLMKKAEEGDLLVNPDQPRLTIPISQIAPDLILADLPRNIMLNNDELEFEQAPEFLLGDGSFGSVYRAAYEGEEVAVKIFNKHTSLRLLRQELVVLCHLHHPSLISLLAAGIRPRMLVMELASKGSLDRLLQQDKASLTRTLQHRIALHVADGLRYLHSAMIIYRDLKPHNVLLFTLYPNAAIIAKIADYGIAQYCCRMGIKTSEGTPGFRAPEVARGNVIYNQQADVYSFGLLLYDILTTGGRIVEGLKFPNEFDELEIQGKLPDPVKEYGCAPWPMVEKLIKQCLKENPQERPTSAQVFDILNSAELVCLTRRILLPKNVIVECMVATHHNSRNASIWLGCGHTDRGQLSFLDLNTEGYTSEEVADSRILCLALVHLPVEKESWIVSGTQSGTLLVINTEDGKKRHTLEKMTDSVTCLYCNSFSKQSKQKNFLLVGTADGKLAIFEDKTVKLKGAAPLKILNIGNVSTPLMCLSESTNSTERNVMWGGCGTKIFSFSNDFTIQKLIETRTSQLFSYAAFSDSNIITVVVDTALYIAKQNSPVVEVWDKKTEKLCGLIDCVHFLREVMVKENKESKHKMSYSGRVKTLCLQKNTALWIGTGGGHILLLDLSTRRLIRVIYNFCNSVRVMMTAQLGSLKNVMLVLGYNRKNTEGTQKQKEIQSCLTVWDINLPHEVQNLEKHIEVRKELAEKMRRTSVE

For the molecule `CNc1nc(Nc2cc(F)c(S(=O)(=O)N3CCC(N4CCOCC4)CC3)cc2OC)nc2[nH]cc(C(F)(F)F)c12` [Example 231, N^2-(5-fluoro-2-methoxy-4-((4-morpholinopiperidin-1-yl)sulfonyl)phenyl)-N^4-methyl-5-(trifluoromethyl)-7H-pyrrolo[2,3-d]pyrimidine-2,4-diamine], the IC50 – broadly, the concentration that gives 50% inhibition – at TTK lay in the range of 101 to 300 nM.

As to `CCNc1nc(Nc2ccc(C(=O)N3CCN(C4COC4)CC3)c3c2OCCO3)nc2[nH]cc(C(F)(F)F)c12` [Example 400, (8-((4-(ethylamino)-5-(trifluoromethyl)-7H-pyrrolo[2,3-d]pyrimidin-2-yl)amino)-2,3-dihydrobenzo[b] [1,4]dioxin-5-yl) (4-(oxetan-3-yl)piperazin-1-yl)methanone], in the test with human DYRK1A and tau, the inhibition (usually the percentage by which the read-out fell short of the control) at 1 µM came out at 69.4%, the inhibition at 0.25 µM came out at 22.3% and the inhibition at 0.5 µM turned out to be 46.5%.

Consider `COc1cc(S(=O)(=O)N2CCOCC2)ccc1Nc1nc(C2CC2)c2c(C#N)c[nH]c2n1` [Example 223, 4-cyclopropyl-2-((2-methoxy-4-(morpholinosulfonyl)phenyl)amino)-7H-pyrrolo[2,3-d]pyrimidine-5-carbonitrile], for which the IC50 on LRRK2 and on TTK was 101 to 300 nM throughout.

Consider `CCNc1nc(Nc2ccc(C(=O)N3CC[C@H](N4CCOCC4)C3)c3c2OCC3)nc2[nH]cc(C(F)(F)F)c12` [Example 475, (S)-(7-((4-(ethylamino)-5-(trifluoromethyl)-7H-pyrrolo[2,3-d]pyrimidin-2-yl)amino)-2,3-dihydrobenzo-furan-4-yl)(3-morpholino-pyrrolidin-1-yl)methanone], for which the half-inhibitory concentration (IC50) at LRRK2 was less than 100 nM. In the test on human DYRK1A and tau, the inhibition at 1 µM came out at 86.8%, the inhibition at 0.25 µM was 42.6% and the inhibition at 0.5 µM was 65.3%.

For `CCCNc1nc(Nc2ccc(C(=O)N3CCC(N4CCOCC4)CC3)c3c2OCCO3)nc2[nH]cc(C#N)c12` [Example 138, 2-((8-(4-morpholinopiperidine-1-carbonyl)-2,3-dihydrobenzo[b][1,4]dioxin-5-yl)amino)-4-(propylamino)-7H-pyrrolo[2,3-d]pyrimidine-5-carbonitrile], the IC50 against LRRK2 and against TTK was less than 100 nM each time.

As for `COCCNc1nc(Nc2ccc(C(=O)N3CCC(N4CCOCC4)CC3)c3c2OCC3)nc2[nH]cc(C(F)(F)F)c12` [Example 443, (7-((4-((2-methoxyethyl)amino)-5-(trifluoromethyl)-7H-pyrrolo[2,3-d]pyrimidin-2-yl)amino)-2,3-dihydrobenzo-furan-4-yl)(4-morpho-linopiperidin-1-yl)methanone], the concentration for half-maximal inhibition (IC50) at LRRK2 and against TTK was less than 100 nM in each case.

For `CCNc1nc(Nc2ccc(C(=O)N3CCC(N4CCOCC4)CC3)c3c2OCC3)nc2[nH]cc(C#N)c12` [Example 347, 4-(ethylamino)-2-((4-(4-morpholino-piperidine-1-carbonyl)-2,3-dihydro-benzofuran-7-yl)amino)-7H-pyrrolo[2,3-d]pyrimidine-5-carbonitrile], at LRRK2, the IC50 was less than 100 nM. In the test with human DYRK1A and tau, the inhibition at 1 µM came to 51.5%, the inhibition at 0.25 µM is 24.7% and the inhibition at 0.5 µM was 42.6%.

With `COCCNc1nc(Nc2ccc(P3(=O)CCN(C4CCOCC4)CC3)cc2OC)nc2[nH]cc(C(F)(F)F)c12` [Example 444, 4-(3-methoxy-4-((4-((2-methoxyethyl)amino)-5-(trifluoromethyl)-7H-pyrrolo[2,3-d]pyrimidin-2-yl)amino)phenyl)-1-(tetrahydro-2H-pyran-4-yl)-1,4-azaphosphinane 4-oxide], the half-maximal inhibitory concentration (IC50) at LRRK2 was less than 100 nM. In the test with human DYRK1A and tau, the inhibition at 1 µM amounted to 65.6%, the inhibition at 0.25 µM came out at 21.7% and the inhibition at 0.5 µM was found to be 45.7%.

In turn, `CNc1nc(Nc2ccc(P3(=O)CCN(C4CC4)CC3)cc2OC)nc2[nH]cc(C(F)(F)F)c12` [Example 411, 1-cyclopropyl-4-(3-methoxy-4-((4-(methylamino)-5-(trifluoromethyl)-7H-pyrrolo[2,3-d]pyrimidin-2-yl)amino)phenyl)-1,4-azaphosphinane-4-oxide] registered a half-inhibitory concentration (IC50) against LRRK2 of less than 100 nM. In the test on human DYRK1A and tau, the inhibition at 1 µM came out at 70.8%, at 0.25 µM the inhibition was 28.5% and the inhibition at 0.5 µM was found to be 48.9%.

At LRRK2, `CNc1nc(Nc2ccc(C(=O)N3CC[C@H](N4CCOCC4)C3)c3c2OCC3)nc2[nH]cc(C(F)(F)F)c12` [Example 236, (S)-(7-((4-(methylamino)-5-(trifluoromethyl)-7H-pyrrolo[2,3-d]pyrimidin-2-yl)amino)-2,3-dihydrobenzofuran-4-yl)(3-morpholinopyrrolidin-1-yl)methanone] showed an IC50 of less than 100 nM. Besides, in the test with human DYRK1A and tau, the inhibition at 1 µM was found to be 67%, the inhibition at 0.25 µM came to 34.1% and the inhibition at 0.5 µM was found to be 59.5%.

Regarding `CCNc1nc(Nc2cc(F)c(S(=O)(=O)N3CCC(N4CCOCC4)CC3)cc2OC)nc2[nH]cc(C(F)(F)F)c12` [Example 232, N^4-ethyl-N^2-(5-fluoro-2-methoxy-4-((4-morpholinopiperidin-1-yl)sulfonyl)phenyl)-5-(trifluoromethyl)-7H-pyrrolo[2,3-d]pyrimidine-2,4-diamine], the IC50 against TTK is 301 to 1000 nM.

As for `O=C(c1ccc(Nc2nc(NC3CCC3)c3c(C(F)(F)F)c[nH]c3n2)c2c1OCCO2)N1CCN(C2COC2)CC1` [Example 407, (8-((4-(cyclo-butylamino)-5-(trifluoromethyl)-7H-pyrrolo[2,3-d]pyrimidin-2-yl)amino)-2,3-dihydrobenzo[b] [1,4]dioxin-5-yl) (4-(oxetan-3-yl)piperazin-1-yl)methanone], at LRRK2, the IC50 is less than 100 nM. For the same molecule, in the test on human DYRK1A and tau, the inhibition at 1 µM is 58.6%, the inhibition at 0.25 µM turned out to be 20.7% and the inhibition at 0.5 µM amounted to 39.4%.

Turning to `O=C(c1ccc(Nc2nc(NCC3CC3)c3c(C(F)(F)F)c[nH]c3n2)c2c1CCO2)N1CCC(N2CCOCC2)CC1` [Example 461, (7-((4-((cyclo-propylmeth-yl)amino)-5-(trifluoromethyl)-7H-pyrrolo[2,3-d]pyrimidin-2-yl)amino)-2,3-dihydrobenzo-furan-4-yl)(4-morpho-linopiperidin-1-yl)methanone], the IC50 against LRRK2 is less than 100 nM. In addition, in the test on human DYRK1A and tau, the inhibition at 1 µM was 72.2%, 0.25 µM produced 18.2% inhibition and the inhibition at 0.5 µM was 46.9%.

In the case of `CNc1nc(Nc2ccc(C(=O)N3CCC(N4CCOCC4)CC3)c3c2OCCO3)nc2[nH]cc(C(F)(F)F)c12` [Example 238, (8-((4-(methylamino)-5-(trifluoromethyl)-7H-pyrrolo[2,3-d]pyrimidin-2-yl)amino)-2,3-dihydrobenzo[b][1,4]dioxin-5-yl)(4-morpholinopiperidin-1-yl)methanone], on LRRK2, the half-inhibitory concentration (IC50) was less than 100 nM.

Regarding `O=C(c1ccc(Nc2nc(NC3CC3)c3c(C(F)(F)F)c[nH]c3n2)c2c1OCCO2)N1CCN(C2COC2)CC1` [Example 405, (8-((4-(cyclo-propylamino)-5-(trifluoromethyl)-7H-pyrrolo[2,3-d]pyrimidin-2-yl)amino)-2,3-dihydrobenzo[b] [1,4]dioxin-5-yl) (4-(oxetan-3-yl)piperazin-1-yl)methanone], on LRRK2, the half-inhibitory concentration (IC50) was less than 100 nM. Also, in the test with human DYRK1A and tau, the inhibition at 1 µM stood at 70.7%, the inhibition at 0.25 µM was found to be 17.5% and the inhibition at 0.5 µM was found to be 44%.

Consider `COc1cc(P2(=O)CCN(C3CC3)CC2)ccc1Nc1nc(NC2CCCC2)c2c(C(F)(F)F)c[nH]c2n1` [Example 413], for which, on TTK, the half-inhibitory concentration (IC50) is less than 100 nM.

In turn, `O=C(c1ccc(Nc2nc(NC3CCCCC3)c3c(C(F)(F)F)c[nH]c3n2)c2c1OCCO2)N1CCN(C2COC2)CC1` [Example 415, (8-((4-(cyclo-hexylamino)-5-(trifluoromethyl)-7H-pyrrolo[2,3-d]pyrimidin-2-yl)amino)-2,3-dihydrobenzo[b] [1,4]dioxin-5-yl) (4-(oxetan-3-yl)piperazin-1-yl)methanone] yielded an IC50 against TTK of less than 100 nM.
